Laboratory results from US20240408067A1, “SOLID STATE FORMS OF NIROGACESTAT SALTS” (TEVA PHARMACEUTICALS INTERNATIONAL GMBH, priority 2021, published 2024).
Counter-ions that a name gives are not always drawn. Blank lines part the entries; values can stand above or below the compound they belong to.

Key:
Type in all cases: physicochemical
[1] = Storage stability at different relative humidities, ambient temperature, 7 days (XRPD)
Experimental: (§1) X-ray diffraction was performed on X-Ray powder diffractometer: Bruker D8 Advance; CuKα radiation (λ=1.5418 Å); Lynx eye detector; laboratory temperature 22-25° C.; PMMA specimen holder ring with silicon low background. Prior to analysis, the samples were gently ground by means of mortar and pestle in order to obtain a fine powder. The ground sample was adjusted into a cavity of the sample holder and the surface of the sample was smoothed by means of a cover glass. • Scan range: 2-40 degrees 2-theta; • Scan mode: continuous; • Step size: 0.05 degrees; • Time per step: 0.5 s; • Sample spin: 30 rpm; • Sample holder: PMMA specimen holder ring with silicon low background. Samples of Nirogacestat dihydrobromide Form NT1 and Nirogacestat hydrobromide Form NHBr1 were subjected to conditions of different relative humidity at ambient temperature. XRPD analysis was performed on the samples after 7 days.

[2] = Storage stability at different relative humidity and temperatures, 6 months (XRPD); conditions: for XRPD analysis results, 25° C., 60% RH / XRPD analysis results, 40° C., 75% RH: 6 months
Experimental: as §1, with “NT1” for “NT1 and Nirogacestat hydrobromide Form NHBr1”, “different temperatures.” for “ambient temperature.”, “6 months.” for “7 days.”

[3] = Grinding experiments (strong grinding, solvent drop grinding; XRPD); conditions: for XRPD analysis results, strong grinding: about 20 mg ground with a pestle for 2 minutes, sample alone; for Stability to solvent drop grinding: isopropanol or no solvent
Experimental: X-ray diffraction was performed on X-Ray powder diffractometer: Bruker D8 Advance; CuKα radiation (λ=1.5418 Å); Lynx eye detector; laboratory temperature 22-25° C.; PMMA specimen holder ring with silicon low background. Prior to analysis, the samples were gently ground by means of mortar and pestle in order to obtain a fine powder. The ground sample was adjusted into a cavity of the sample holder and the surface of the sample was smoothed by means of a cover glass. • Scan range: 2-40 degrees 2-theta; • Scan mode: continuous; • Step size: 0.05 degrees; • Time per step: 0.5 s; • Sample spin: 30 rpm; • Sample holder: PMMA specimen holder ring with silicon low background. […] […] In these experiments, about 20 mg of the sample is placed in a mortar and ground with a pestle for 2 minutes. The solvent, when used, was added to the crystalline material before grinding, in a volume of 10 microlitres. XRPD analysis performed on the sample after the grinding experiment, confirmed no change in the starting material (Table 3):

[4] = Thermal stability, heating up to 100° C. (XRPD); conditions: heating up to 100° C. for 30 minutes
Experimental: as §1, with “to heating up to 100° C. for 30 minutes.” for “to conditions of different relative humidity at ambient temperature.”, “analysis of” for “analysis was performed on”, “the sample confirmed there to be no change in the starting material (Table 4): […]” for “the samples after 7 days.”

[5] = Stability under pressure of 2 tons
[6] = listed as Form NT1, dihydrobromide salt
[7] = listed as Nirogacestat dihydrobromide Form NT1, dihydrobromide salt
[8] = listed as Form NT1 of Nirogacestat dihydrobromide, dihydrobromide salt
[9] = listed as Nirogacestat dihydrobromide form NT1, dihydrobromide salt
[10] = listed as Form NHBr1 of Nirogacestat hydrobromide, hydrobromide salt
[11] = listed as Nirogacestat hydrobromide Form NHBr1, hydrobromide salt

XRPD analysis results, relative humidity 20% ([1]; 20% RH, ambient temperature, 7 days, listed as Form NT1, dihydrobromide salt): stable
XRPD analysis results, relative humidity 40% ([1]; 40% RH, ambient temperature, 7 days, listed as Form NT1, dihydrobromide salt): stable
XRPD analysis results, relative humidity 60% ([1]; 60% RH, ambient temperature, 7 days, listed as Form NT1, dihydrobromide salt): stable
XRPD analysis results, relative humidity 80% ([1]; 80% RH, ambient temperature, 7 days, listed as Form NT1, dihydrobromide salt): stable
Stability after exposure to high and low relative humidity ([1]; at least 7 days, summary of Table 1): stable
XRPD analysis results, 25° C., 60% RH [2, 6]: stable
XRPD analysis results, 25° C., 60% RH [2, 7]: No change
XRPD analysis results, 40° C., 75% RH [2, 6]: stable
XRPD analysis results, 40° C., 75% RH [2, 7]: No change
Stability after exposure to high and low relative humidity at different temperatures ([2]; at least 6 months, summary of Table 2): stable
XRPD analysis results, strong grinding ([3]; dihydrobromide salt): No change
XRPD analysis results, strong grinding [3, 8]: stable
XRPD analysis results, strong grinding [3, 7]: no change
XRPD analysis results, strong grinding [3, 9]: stable
XRPD analysis results, solvent-drop grinding (ethanol) ([3]; ground 2 minutes, 10 microlitres solvent, ethanol): No change
XRPD analysis results, solvent-drop grinding (water) ([3]; ground 2 minutes, 10 microlitres solvent, water): No change
Stability to solvent drop grinding [3, 7]: no change
Stability to solvent drop grinding [3, 9]: stable
Resistance to polymorphic changes on grinding ([3]; summary of Table 3): resistant to polymorphic changes
Result, heating 100° C., 30 minutes ([4]; dihydrobromide salt): Stable
Result, heating 100° C., 30 minutes [4, 8]: stable
Result, heating 100° C., 30 minutes [4, 7]: no change
Result, heating 100° C., 30 minutes [4, 9]: stable
Stability under pressure [5]: stable
SMILES: CCC[C@H](N[C@H]1CCc2cc(F)cc(F)c2C1)C(=O)Nc1cn(C(C)(C)CNCC(C)(C)C)cn1 [Nirogacestat dihydrobromide salt]

XRPD analysis results, strong grinding ([3]; hydrobromide salt): No change
XRPD analysis results, strong grinding [3, 10]: stable
XRPD analysis results, strong grinding [3, 11]: no change
Stability to solvent drop grinding [3, 11]: no change
Result, heating 100° C., 30 minutes ([4]; hydrobromide salt): Stable
Result, heating 100° C., 30 minutes [4, 10]: stable
Result, heating 100° C., 30 minutes [4, 11]: no change
SMILES: CCC[C@H](N[C@H]1CCc2cc(F)cc(F)c2C1)C(=O)Nc1cn(C(C)(C)CNCC(C)(C)C)cn1 [Nirogacestat hydrobromide salt]
